Columns and labels:
[1] = test system: NF-kB signaling through NIK in human embryonic kidney 293 cells; test: 293-NIK NF-kB-Luciferase reporter assay; type: cell-based; conditions: HEK293, 293 cells with tetracycline-inducible NIK, 1 ug/mL doxycycline, 24 hours, read-out: inhibitory value (IC50) for 293-NIK NF-kB-Luciferase activity
Method in brief: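 HEK293 cells stably carrying tetracycline-inducible NIK plus NF-kB (ELAM-1 element) firefly luciferase and constitutive TK-Renilla viability reporter. Compounds (0.2% DMSO) incubated 24 h with 1 ug/mL doxycycline; Dual Glo luminescence read, IC50 from firefly signal.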

[2] = test system: human embryonic kidney 293 cells; test: 293-NIK TK Renilla Luciferase reporter (general measure of cell viability); type: cell-based; conditions: HEK293, 293 cells, constitutive Renilla luciferase, 24 hours, read-out: inhibitory value (IC50) for 293-NIK TK Renilla Luciferase activity
Excerpt: (1) The first assay was used to profile whether a test compound can inhibit the NF-kB signally through NIK inhibition without affecting cell viability. In this assay, human embryonic kidney 293 cells was stably transfected with a tetracycline-inducible NIK DNA construct containing a cytomegalovirus promoter plus two reporter DNA constructs. One reporter encoded firefly luciferase under the control of three repeats of an NF-kB response element from the ELAM-1 gene and reflects the level of NIK activity in the cells, whereas the other reporter constitutively expressed Renilla luciferase under the control of the herpes simplex virus thymidine kinase promoter and served as a general measure of cell viability. Cells were incubated with different concentrations of compounds (0.2% DMSO final) in medium containing 1 ug/mL doxycycline and 10% tet-system approved fetal bovine serum (Clontech) for 24 hours, after which the reporters' signals were detected using the Dual Glo luciferase detection system (Promega) according to the vendor's protocol. The compounds listed in Table 1 have the corresponding inhibitory value (IC50 in micromolar) for 293-NIK NF-kB-Luciferase activity (values for compounds are presented in the same order as found in Table 1): na, 0.059, na, na, na, 0.105, 0.027, na, 20, 1.2, na, 1.8, 0.0231, 0.879, 0.0361, 0.582, na, 0.142, na, 0.403, 0.059, 0.0331, na, na, 0.0573, 1.5, na, na, 0.0722, na, na, 0.589, 12.7, 3.7, 14.9, na, 0.707, 1, 0.0311, 0.332, 0.309, 0.0142, 0.051, 2.8, 0.129, na, na, 1.5, na, na, na, 1.3, 0.062, 20, 0.31, 0.104, 0.091, 0.037, 0.085, 0.279, na, 0.305, 0.064, 0.332, 0.133, 0.168, 0.217, 0.553, na and na.
The compounds in listed in Table 1 have the corresponding inhibitory value (IC50 in micromolar) for 293-NIK TK Renilla Luciferase activity: (values for compounds are presented in the same order as found in Table 1): 6.4, 3.6, 20, na, 1.6, 9.3, 18.5, na, na, 2.6, na, na, na, na, na, na, na, na, na, na, na, na, na, na, na, na, na, na, na, na, na, na, na, na, na, na, na, na, na, na, na, na, na, na, na, na, na, >20, na, na, na, 20, >20, 17, 1.3, 15.6, 0.967, 2.7, 11.2, 5.1, na, 20, 20, 20, 20, 20, 17.6, 20, na and na.

[3] = target: T1, nuclear factor-kappa B (NF-kB)-inducing kinase (NIK) (Homo sapiens, UniProt Q99558); test: NIK Enzyme Inhibition Assay (Transcreener ADP assay); type: biochemical; conditions: purified NIK 0.2-1 nM, 10 uM ATP, fluorescence polarization, Morrison's quadratic equation; read-out: inhibitory value (Ki) for NIK
T1 construct: made in house; host or cells: baculovirus-infected insect cells

[4] = test system: p52 (NF-kB2) nuclear translocation in HeLa cells; test: NIK p52 Translocation Assay (non-classical NF-kB signaling); type: cell-based; conditions: Homo sapiens; HeLa cells, 100 ng/mL anti-lymphotoxin beta receptor antibody, 5 hours; read-out: inhibitory value (IC50) for NIK p52 Translocation Assay
Method in brief: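 HeLa cells in 10% FBS medium were exposed to compound (0.2% DMSO final) and stimulated with 100 ng/mL anti-lymphotoxin β receptor antibody for 5 h. Fixed cells were immunostained for p52 with DRAQ5 counterstain and imaged by high-content imaging. IC50 from nuclear/cytoplasmic p52 signal ratio vs concentration.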

[5] = test system: REL-A (p65) nuclear translocation in HeLa cells; test: NIK RelA Translocation Assay (classical NF-kB signaling); type: cell-based; conditions: Homo sapiens; HeLa cells, compounds 4.5 hours, 10 ng/mL TNF-α 30 minutes; read-out: inhibitory value (IC50) for NIK RelA Translocation Assay
Method in brief: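 HeLa cells in 10% FBS medium were preincubated 4.5 h with compound (0.2% DMSO final), then stimulated with 10 ng/mL TNF-α for 30 min. After fixation, anti-REL-A (p65) immunostaining and DRAQ5 nuclear stain, high-content imaging gave the nuclear/cytoplasmic intensity ratio; IC50 from signal versus concentration.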

T1 sequence (Q99558 whole entry): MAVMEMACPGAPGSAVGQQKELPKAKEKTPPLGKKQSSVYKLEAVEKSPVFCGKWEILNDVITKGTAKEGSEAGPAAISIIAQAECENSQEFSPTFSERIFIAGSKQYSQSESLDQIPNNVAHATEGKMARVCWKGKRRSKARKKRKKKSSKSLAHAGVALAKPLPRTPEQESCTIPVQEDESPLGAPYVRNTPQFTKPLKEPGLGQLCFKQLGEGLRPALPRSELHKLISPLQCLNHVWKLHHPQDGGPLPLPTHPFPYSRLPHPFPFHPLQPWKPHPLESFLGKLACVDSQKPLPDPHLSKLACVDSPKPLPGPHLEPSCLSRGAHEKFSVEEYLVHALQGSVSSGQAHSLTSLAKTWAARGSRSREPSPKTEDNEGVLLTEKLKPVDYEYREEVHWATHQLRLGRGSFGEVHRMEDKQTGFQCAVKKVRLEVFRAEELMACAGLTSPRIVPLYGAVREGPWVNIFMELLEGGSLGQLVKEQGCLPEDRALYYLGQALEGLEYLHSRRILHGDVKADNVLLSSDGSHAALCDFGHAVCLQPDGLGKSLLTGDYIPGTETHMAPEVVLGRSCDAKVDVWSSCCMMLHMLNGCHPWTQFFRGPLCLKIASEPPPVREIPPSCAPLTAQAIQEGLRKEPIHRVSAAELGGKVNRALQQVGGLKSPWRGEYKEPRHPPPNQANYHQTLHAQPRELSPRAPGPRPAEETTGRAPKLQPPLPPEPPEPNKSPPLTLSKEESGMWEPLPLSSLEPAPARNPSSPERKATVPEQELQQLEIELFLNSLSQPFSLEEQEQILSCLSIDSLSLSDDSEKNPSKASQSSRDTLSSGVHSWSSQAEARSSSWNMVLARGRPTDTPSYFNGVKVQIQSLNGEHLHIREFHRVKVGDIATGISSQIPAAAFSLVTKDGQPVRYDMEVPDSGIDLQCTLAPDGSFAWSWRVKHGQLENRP

Ki [3] [nM]	IC50 [5] [nM]	Structure (SMILES)	IC50 [1] [nM]	IC50 [2] [nM]	IC50 [4] [nM]
0.49	747	Cc1cc(C(C)(O)C#Cc2ccc3c(C(=O)N(C)C)nn(-c4ccnc(N)n4)c3c2)no1 (stereo not shown) [Example T1-59, 1-(2-aminopyrimidin-4-yl)-6-(3-hydroxy-3-(5-methyl-isoxazol-3-yl)but-1-ynyl)-N,N-dimethyl-1H-indazole-3-carboxamide]	85	11200	1900
2.2	1000	Cc1cc(C(C)(O)C#Cc2ccc3nc(C4CC4)n(-c4ncnc(N)n4)c3c2)no1 (stereo not shown) [Example T1-60, 4-(1-(4-amino-1,3,5-triazin-2-yl)-2-cyclopropyl-1H-benzo [d]imidazol-6-yl)-2-(5-methyl-isoxazol-3-yl)but-3-yn-2-ol]	279	5100	552

Source: patent US8901313B2, “6,5-heterocyclic propargylic alcohol compounds and uses therefor” (Genentech, Inc., priority 2011, dated 2014)
